Measurements taken from patent US7179800B2 (priority 2002, dated 2007).
Like-named read-outs stand apart in the source and are kept apart here.

How the values were obtained:
CB2 receptor = molecular target: T1, CB2 receptor (Homo sapiens, UniProt P34972); assay: CB2 binding procedure: displacement of [3H]CP-55,940 from membranes of transfected CHO cells; details: for CB1/CB2 (ratio of Ki): CB1 Ki divided by CB2 Ki; for Ki: [3H]CP-55,940, transfected CHO cell membranes
T1 construct: expressed in transfected cells; host or cells: CHO cells, G418-selected transfected line
T1 sequence (P34972 whole entry): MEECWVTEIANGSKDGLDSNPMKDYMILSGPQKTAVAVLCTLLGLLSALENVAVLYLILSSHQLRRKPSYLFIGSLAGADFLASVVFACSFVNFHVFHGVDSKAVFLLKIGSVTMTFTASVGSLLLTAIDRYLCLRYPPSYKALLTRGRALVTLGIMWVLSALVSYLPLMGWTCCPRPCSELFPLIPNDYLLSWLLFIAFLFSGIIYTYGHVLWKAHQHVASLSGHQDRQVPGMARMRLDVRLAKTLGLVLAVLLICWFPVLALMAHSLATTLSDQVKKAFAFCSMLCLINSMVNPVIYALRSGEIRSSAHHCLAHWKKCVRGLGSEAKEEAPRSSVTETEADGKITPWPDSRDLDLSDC
Procedure: Membranes for CB2 binding were obtained from CHO cells. The transfected cell line was maintained in Dublecco's Modified Eagle Medium (Gibco BRL, Grand Island, N.Y.) with 10% fetal clone II (HyClone Laboratories, Inc., Logan, Utah) plus 0.3 to 0.5 mg/ml G418 (to maintain selective pressure) under 5% CO2 at 37% C. Cells were harvested with 1 mM EDTA in phosphate-buffered saline and were centrifuged at 1000×g for 5 min at 4% C. The supernatant was saved and the P1 pellet was resuspended in centrifugation buffer. Homogenization and centrifugation were repeated twice and the combined supernatant fractions were centrifuged at 40,000×g for 30 min at 4% C. The P2 pellet was resuspended in centrifugation buffer 2 (Tris HCl, 50 mM; EDTA, 1 mM; and MgCl2, 3 mM, pH 7.4) to a protein concentration of approximately 2 mg/ml. Protein concentrations were determined by the method of Bradford (1976) using Bio-Rad Protein Assay (Bio-Rad, Richmond, Calif.) and BSA standards (fatty acid free, Sigma Chemical Co., St. Louis, Mo.). The membrane preparation was divided into amounts convenient for binding assays and frozen rapidly in dry ice and stored at −80% C.
Binding was initiated by the addition of 50 μg of quickly thawed P2 membranes to test tubes containing [^3H]CP-55,940 (final reaction concentration 0.5 nM), an appropriate concentration of unlabeled CP-55,940 or test drug, and sufficient quantity of assay buffer (50 mM Tris-HCl, 1 mM EDTA, 3 mM MgCl2, 5 mg/ml bovine serum albumin, pH 7.4) to bring the total incubation volume to 0.5 ml. Concentration of [^3H]CP-55,940 in saturation studies ranged from 50 to 10,000 pM. Nonspecific binding was determined by the addition of 1 μM unlabeled CP-55,940. CP-55,940 and all cannabinoid analogs were prepared by suspension in assay buffer from a 1 mg/ml ethanolic stock without evaporation of the ethanol (final concentration of no more than 0.4%). In competition studies, analog concentrations ranged from 0.1 nM to 10 μM. After incubation at 30% C for 1 hr, binding was terminated by the addition of 2 ml of ice-cold wash buffer (50 mM Tris-HCl and 1 mg/ml BSA) and vacuum filtration through pre-treated filters in a 12-well sampling manifold (Millipore, Bedford, Mass.). Reaction vessels were washed once with 2 ml of ice-cold wash buffer. Filters were placed into 7-ml plastic scintillation vials (RPI Corp., Mount Prospect, Ill.) with 4 ml of Budget-Solve (RPI Corp.). After shaking for 30 min, the radioactivity present was determined by liquid scintillation spectrometry. Three reaction vessels were used for each drug concentration in each assay. The results represent the combined data of three independent experiments. All assays were performed in siliconized test tubes, which were prepared by air drying (12 hr) inverted borosilicate tubes after two rinses with a 0.1% solution of AquaSil (Pierce, Rockford, Ill.). The GF/C glass-fiber filters (2.4 cm, Baxter, McGaw Park, Ill.) were pre-treated in a 0.1% solution of pH 7.4 polyethylenimine (Sigma Chemical Co.) for at least 6 hr.
(§1) In addition, multiple linear regression was used to calculate the overall degree of relationship between CB1 binding affinity and potency in the mouse measures for all active cannabinoids. […] Ki values for CB1 and CB2 binding were obtained from Scatchard displacement analysis as determined via EBDA program of the KELL software package (Biosoft, Milltown, N.J.).

Male ICR mice [1] = assay: Change in rectal temperature (RT) in mice; type: in vivo, mouse; details: for ED50: Mus musculus, iv; for RT effect at the highest dose (change in rectal temperature): 30 mg/kg
Procedure: (§2) Male ICR mice (25–32 g), obtained from Harlan (Dublin, Va.), were housed in groups of five. All animals were kept in a temperature-controlled (20–22° C.) environment with a 12-hour light-dark cycle (lights on at 7 a.m.). Separate mice were used for testing each drug dose in the in vivo behavioral procedures. Brain tissue for binding studies was obtained from male Sprague-Dawley rats (150–200 g) purchased from Harlan Laboratories (Dublin, Va.).
(§3) Measurement of spontaneous activity in mice occurred in standard activity chambers interfaced with a Digiscan Animal Activity Monitor (Omnitech Electronics, Inc., Columbus, Ohio). A standard tail-flick apparatus and a digital thermometer (Fisher Scientific, Pittsburgh, Pa.) were used to measure antinociception and rectal temperature, respectively
(§4) Resorcinols were synthesized in our labs (Organix, Inc., Woburn, Mass.) according to the procedure specified below and were suspended in a vehicle of absolute ethanol, Emulphor-620 (Rhone-Poulenc, Inc., Princeton, N.J.), and saline in a ratio of 1:1:18. Drugs were administered to the mice intravenously (i.v.) in the tail vein at a volume of 0.1 ml/10 g.
(§5) Prior to testing in the behavioral procedures, mice were acclimated to the experimental setting (ambient temperature 22–24° C.) overnight. Pre-injection control values were determined for rectal temperature and tail-flick latency (in sec). […] Tail-flick latency was measured at 20 min post-injection. Maximum latency of 10 sec was used. Antinociception was calculated as percent of maximum possible effect {% MPE=[(test−control latency)/(10-control)]×100}. Control latencies typically ranged from 1.5 to 4.0 sec. At 30 min post-injection, rectal temperature was measured This value was expressed as the difference between control temperature (before injection) and temperatures following drug administration (° C.). Different mice (n=5–6 per dose) were tested for each dose of each compound. Each mouse was tested in each of the 3 procedures.
(§6) Based on data obtained from numerous previous studies with cannabinoids, maximal cannabinoid effects in each procedure were estimated as follows: 90% inhibition of spontaneous activity, 100% MPE in the tail flick procedure, and −6° C. change in rectal temperature. ED50's were defined as the dose at which half maximal effect occurred. For drugs that produced one or more cannabinoid effect, ED50's were calculated separately using least-squares linear regression on the linear part of the dose-effect curve for each measure in the mouse tetrad, plotted against log10 transformation of the dose. For the purposes of potency comparison, potencies were expressed as μmol/kg.

Male ICR mice [2] = assay: Suppression of spontaneous activity (SA) in mice; type: in vivo, mouse; details: for S.A ED50 / ED50 SA (suppression of spontaneous activity) / ED50 / SA percent effect at the highest dose: mice, i.v.; for S.A % effect at dose: @ 30 (mg/kg); for ED50: Mus musculus, iv; for SA percent effect at the highest dose: 30 mg/kg, % inhibition of activity of vehicle group
Procedure: as §2, §3, §4, §5, §6

Male ICR mice [3] = assay: Tail-flick antinociception (TF, % MPE) in mice; type: in vivo, mouse; details: for ED50: Mus musculus, iv; for T.F. % effect at dose: @ 30 (mg/kg); for TF percent effect (% MPE) at the highest dose: 30 mg/kg
Procedure: as §2, §3, §4, §5, §6

CB1 receptor = CB1 receptor (Rattus norvegicus, UniProt P20272); assay: CB1 binding procedure: displacement of [3H]CP 55,940 from rat whole-brain P2 membranes; design: whole brain was homogenized and centrifuged; from tissue; host or cells: rat whole brain, P2 membrane fraction; details: for Ki: [3H]CP 55,940, rat brain membranes
Chain of CB1 receptor (P20272 whole entry): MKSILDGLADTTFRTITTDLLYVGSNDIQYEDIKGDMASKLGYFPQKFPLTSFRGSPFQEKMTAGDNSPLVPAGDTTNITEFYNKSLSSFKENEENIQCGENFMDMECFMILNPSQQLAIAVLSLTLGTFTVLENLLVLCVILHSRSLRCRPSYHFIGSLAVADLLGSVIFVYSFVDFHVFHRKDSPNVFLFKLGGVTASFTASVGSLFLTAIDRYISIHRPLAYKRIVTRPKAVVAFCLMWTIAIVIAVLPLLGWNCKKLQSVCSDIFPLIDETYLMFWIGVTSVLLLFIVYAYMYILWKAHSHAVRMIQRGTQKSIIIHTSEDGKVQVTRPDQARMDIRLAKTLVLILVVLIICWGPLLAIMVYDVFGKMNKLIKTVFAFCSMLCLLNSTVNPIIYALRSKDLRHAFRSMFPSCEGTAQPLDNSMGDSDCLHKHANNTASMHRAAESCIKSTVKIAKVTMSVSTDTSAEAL
Procedure: as §2
The methods used for tissue preparation and binding have been described previously (Compton et al., 1993) and are similar to those described by Devane et al. (1988). All assays, as described briefly below, were performed in triplicate, and the results represent the combined data from three to six individual experiments.
Following decapitation and rapid removal of the brain, whole brain was homogenized and centrifuged. The resulting pellet was termed P1. The supernatant was saved and combined with the two subsequent supernatants obtained from washing of the P1 pellet. The combined supernatant fractions were centrifuged, resulting in the P2 pellet. After further incubation and centrifuging, this pellet was resuspended in assay buffer to a protein concentration of approximately 2 mg/ml. The membrane preparation was quickly frozen in a bath solution of dry ice and 2-methylbutane (Sigma Chemical Co., St. Louis, Mo.), then stored at −80° C. for no more than 2 weeks. Prior to performing a binding assay an aliquot of frozen membrane was rapidly thawed and protein values determined by the method of Bradford (1976).
Binding was initiated by the addition of 150 μg of P2 membrane to test tubes containing 1 nM of [^3H] CP 55,940 (79 Ci/mmol) and a sufficient quantity of buffer to bring the total incubation volume to 1 ml. Nonspecific binding was determined by the addition of 1 μM unlabeled CP 55,940. Following incubation at 30° C. for 1 hr, binding was terminated by addition of ice cold buffer and vacuum filtration through pretreated filters in a 12-well sampling manifold (Millipore, Bedford, Mass.). After washing, filters were placed into plastic scintillation vials (Packard, Downer Grove, Ill.) and shaken. The quantity of radioactivity present was determined by liquid scintillation spectrometry.
as §1

[4] = means ± SEM, read-out: Ki (nM) CB2
[5] = Table 6, mice, i.v., read-out: R.T. ED50
[6] = mice, i.v., 95% confidence limits in parentheses, read-out: ED50 RT (rectal temperature)
[7] = 95% confidence limits in parentheses
[8] = Table 6, mice, i.v., read-out: T.F. ED50
[9] = mice, i.v., 95% confidence limits in parentheses, read-out: ED50 TF (antinociceptive effect in tail flick assay)
[10] = means ± SEM, read-out: Ki (nM) CB1
[11] = mice, i.v., 95% confidence limits in parentheses
[12] = 95% confidence limits in parentheses, read-out: ED50 SA (suppression of spontaneous activity)
[13] = relative to the comparator analog

CCCCCCC(C)(C)c1cc(O)c(C2CCCC(C)C2)c(O)c1 (single isomer, unassigned) [O-1797A]
CB1/CB2 (ratio of Ki) (CB2 receptor): 12 | Ki (CB2 receptor; [4]): 0.4 ± 0.03 nM | ED50 (Male ICR mice [1]; [5]): 0.252 mg/kg | ED50 (Male ICR mice [1]; [6]): 0.7 µmol/kg | S.A ED50 (Male ICR mice [2]; Table 6, listed as O-1297): 0.154 mg/kg | ED50 SA (suppression of spontaneous activity) (Male ICR mice [2]; [7]): 0.5(0.4–0.6) μmol/kg | ED50 (Male ICR mice [3]; [8]): 0.362 mg/kg | ED50 (Male ICR mice [3]; [9]): 1.1 µmol/kg | Ki (CB1 receptor; [10]): 5 ± 0.6 nM

CCCCCCC(C)(C)c1cc(O)c(C2CCCC(C)C2)c(O)c1 (single isomer, unassigned) [O-1798B, 2-(3-Methylcyclohexyl)-5-(1′,1′-dimethylheptyl)-resorcinolisomer B]
CB1/CB2 (ratio of Ki) (CB2 receptor): 8 | Ki (CB2 receptor; [4]): 0.5 ± 0.07 nM | R.T. ED50 (Male ICR mice [1]; Table 6, mice, i.v.): 0.218 mg/kg | ED50 RT (rectal temperature) (Male ICR mice [1]; [11]): 0.6(0.5–0.7) μmol/kg | S.A ED50 (Male ICR mice [2]; Table 6): 0.070 mg/kg | ED50 SA (suppression of spontaneous activity) (Male ICR mice [2]; [7]): 0.2(0.03–1.2) μmol/kg | T.F. ED50 (Male ICR mice [3]; Table 6, mice, i.v.): 0.379 mg/kg | ED50 TF (antinociceptive effect in tail flick assay) (Male ICR mice [3]; [11]): 1.0(0.7–1.6) μmol/kg | Ki (CB1 receptor; [10]): 4 ± 0.6 nM

CCCCCCC(C)(C)c1cc(OC)c(C2(O)CCCC(C)C2)c(OC)c1 (single isomer, unassigned; isomer 2) [O-1967B, 1-(4-(1,1-Dimethylheptyl-2,6-dimethoxy-phenyl)-3-methyl-cyclohexaol isomer 2]
CB1/CB2 (ratio of Ki) (CB2 receptor): 15 | Ki (CB2 receptor; [4]): 111 ± 8 nM | R.T. effect at dose (Male ICR mice [1]; Table 6, @ 30 (mg/kg)): 0 @ 30 °C | S.A % effect at dose (Male ICR mice [2]; Table 6): 42.9 @ 30% | T.F. % effect at dose (Male ICR mice [3]; Table 6): 8.2% @ 30 | Ki (CB1 receptor; [10]): 1720 ± 105 nM

CCCCCCC(C)(C)c1cc(O)c(C2CCCC2)c(O)c1 [O-1424, 2-(Cyclopentyl)-dimethylheptyl-resorcinol]
Ki (CB2 receptor; [4]): 7 ± 0.4 nM | ED50 (Male ICR mice [1]; [5]): 4.24 mg/kg | ED50 (Male ICR mice [1]; [6]): 13 µmol/kg | ED50 (Male ICR mice [2]; Table 6, read-out: S.A ED50): 8.29 mg/kg | ED50 (Male ICR mice [2]; [12]): 27 µmol/kg | ED50 (Male ICR mice [3]; [8]): 4.48 mg/kg | ED50 (Male ICR mice [3]; [9]): 13 µmol/kg | Ki (CB1 receptor; [10]): 95 ± 6 nM

CCCC(C)(C)c1ccc(-c2cc(C)ccc2C(C)C)c(O)c1 [O-1532]
CB1/CB2 (ratio of Ki) (CB2 receptor): 8 | Ki (CB2 receptor; [4]): 113 ± 21 nM | RT effect at the highest dose (change in rectal temperature) (Male ICR mice [1]; mice, i.v.): −0.4 °C | SA percent effect at the highest dose (Male ICR mice [2]): 32% | TF percent effect (% MPE) at the highest dose (Male ICR mice [3]; mice, i.v.): 7% | Ki (CB1 receptor; [10]): 876 ± 18 nM

CCCCCCC(C)(C)c1ccc(-c2cc(CO)ccc2C(C)C)c(O)c1 [O-1601, 3-1′,1′-Dimethylheptyl-6-(2-isopropyl-5-hydroxy-methylphenyl)-phenol]
CB1/CB2 (ratio of Ki) (CB2 receptor): 2 | Ki (CB2 receptor; [4]): 3 ± 0.4 nM | ED50 (Male ICR mice [1]; [6]): 1.6 µmol/kg | ED50 (Male ICR mice [2]; [12]): 1.1 µmol/kg | ED50 (Male ICR mice [3]; [9]): 1.1 µmol/kg | Ki (CB1 receptor; [10]): 5 ± 0.6 nM

CCCCCCC(C)(C)c1cc(O)c(C2CCC(c3ccccc3)CC2)c(O)c1 (stereo not drawn) [O-1663, 2-(4-Phenylcyclohexyl)-5-(1′,1′-dimethylheptyl)-resorcinol]
CB1/CB2 (ratio of Ki) (CB2 receptor): 16 | Ki (CB2 receptor; Ki (nM) CB2, means ± SEM): 9 ± 2 nM | fold decrease in CB2 affinity (CB2 receptor; [13]): 2 fold | RT effect at the highest dose (change in rectal temperature) (Male ICR mice [1]; mice, i.v.): −2.2(30) °C | S.A % effect at dose (Male ICR mice [2]; Table 6): 32% @ 30 | SA percent effect at the highest dose (Male ICR mice [2]): 32%(30) | T.F. % effect at dose (Male ICR mice [3]; Table 6): 7% @ 30 | TF percent effect (% MPE) at the highest dose (Male ICR mice [3]; mice, i.v.): 7%(30) | Ki (CB1 receptor; Ki (nM) CB1, means ± SEM): 144 ± 22 nM | fold decrease in CB1 affinity (CB1 receptor; [13]): 3 fold
